Experimental data published in US12371454B2, “Cyclic peptide compound having Kras inhibitory action” (priority 2019, dated 2025).
Positions of bridges follow the written chain, without caps; N, C: chain ends. Non-standard residues stand in square brackets, D forms with d. Residues, ends and D or L forms follow the SMILES beside them. *: point of attachment. hPhe(3-Cl-4-CF3) = N[C@@H](CCc1ccc(C(F)(F)F)c(Cl)c1)C(=O)O; hPhe(3-F,4-CF3) = N[C@@H](CCc1ccc(C(F)(F)F)c(F)c1)C(=O)O; NMePhe(4-CF3) = CN[C@@H](Cc1ccc(C(F)(F)F)cc1)C(=O)O; 3Oxa8azabicyclo(3.2.1)octane = C1CC2COCC1N2*; NMeAla(cPent) = CN[C@@H](CC1CCCC1)C(=O)O; NMeGly(cPent) = CN[C@H](C(=O)O)C1CCCC1; NMeCha = CN[C@@H](CC1CCCCC1)C(=O)O; NMehLeu = CN[C@@H](CCC(C)C)C(=O)O; NEtLeu = CCN[C@@H](CC(C)C)C(=O)O; NMeI = CC[C@H](C)[C@H](NC)C(=O)O; NMeD = CN[C@@H](CC(=O)O)C(=O)O; NMeL = CN[C@@H](CC(C)C)C(=O)O; NMeS = CN[C@@H](CO)C(=O)O; Morpholide = C1CN(*)CCO1; NMeA = CN[C@@H](C)C(=O)O; Pyrrolidide = C1CCN(*)C1; Ac5c = NC1(C(=O)O)CCCC1; Aze = O=C(O)[C@@H]1CCN1; NEtG = CCNCC(=O)O; Sar = CNCC(=O)O; Propyl = CCC*

These compounds were tested on Human pancreatic cancer cell line AsPC-1 (assay: Measurement of AsPC-1 cell growth inhibition (AsPC-1 CGI)). Conditions: 96 h.
Format: cell-based
Method in brief: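 AsPC-1 cells in 15% FBS RPMI-1640 were exposed to test compound for 96 hours at 37° C, with CellTiter-Glo as endpoint.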
Work on `CC[C@H](C)[C@@H]1NC(=O)[C@H](CC2CCCC2)N(C)C(=O)C[C@@H](C(=O)N2CCOCC2)N(C)C(=O)[C@H](C2CCCC2)N(C)C(=O)C2(CCCC2)NC(=O)[C@@H]2CCCN2C(=O)[C@H](CCc2ccc(C(F)(F)F)c(Cl)c2)NC(=O)CN(C)C(=O)[C@H](C2CCCC2)N(C)C(=O)[C@@H]2CCN2C(=O)[C@H](C)NC1=O` [Compound 1145] ([NMeAla(cPent)]IA[Aze][NMeGly(cPent)][Sar][hPhe(3-Cl-4-CF3)]P[Ac5c][NMeGly(cPent)][NMeD]-Morpholide; lactam N-11) yielded an IC50 of 100 to 500 nM. `CC[C@H](C)[C@@H]1NC(=O)[C@H](CC(C)C)N(CC)C(=O)C[C@@H](C(=O)N2CCCC2)N(C)C(=O)[C@H]([C@@H](C)CC)N(C)C(=O)C2(CCCC2)NC(=O)[C@@H]2CCCN2C(=O)[C@H](CCc2ccc(C(F)(F)F)c(Cl)c2)NC(=O)CN(C)C(=O)[C@H](Cc2ccc(C(F)(F)F)cc2)N(C)C(=O)[C@@H]2CCN2C(=O)[C@H](C)NC1=O` [Compound 1146] ([NEtLeu]IA[Aze][NMePhe(4-CF3)][Sar][hPhe(3-Cl-4-CF3)]P[Ac5c][NMeI][NMeD]-Pyrrolidide; lactam N-11) gave an IC50 of 20 to 50 nM. For `CCCOC[C@H]1C(=O)N(C)CC(=O)N[C@@H](CCc2ccc(C(F)(F)F)c(Cl)c2)C(=O)N2CCC[C@H]2C(=O)NC2(CCCC2)C(=O)N(C)[C@@H](C2CCCC2)C(=O)N(C)[C@H](C(=O)N2C3CCC2COC3)CC(=O)N(C)[C@@H](CCC(C)C)C(=O)N[C@@H]([C@@H](C)CC)C(=O)N(C)[C@@H](C)C(=O)N2CC[C@H]2C(=O)N1C` [Compound 1154] ([NMehLeu]I[NMeA][Aze][NMeS](Propyl)[Sar][hPhe(3-Cl-4-CF3)]P[Ac5c][NMeGly(cPent)][NMeD]-{3Oxa8azabicyclo(3.2.1)octane}; lactam N-11), the IC50 was 20 to 50 nM. `CC[C@H](C)[C@@H]1NC(=O)[C@H](CC(C)C)N(C)C(=O)C[C@@H](C(=O)N2CCCC2)N(C)C(=O)[C@H]([C@@H](C)CC)N(C)C(=O)C2(CCCC2)NC(=O)[C@@H]2CCCN2C(=O)[C@H](CCc2ccc(C(F)(F)F)c(Cl)c2)NC(=O)CN(CC)C(=O)[C@H](Cc2ccc(C(F)(F)F)cc2)N(C)C(=O)[C@@H]2CCN2C(=O)[C@H](C)N(C)C1=O` [Compound 1159] ([NMeL]I[NMeA][Aze][NMePhe(4-CF3)][NEtG][hPhe(3-Cl-4-CF3)]P[Ac5c][NMeI][NMeD]-Pyrrolidide; lactam N-11) was tested, and the IC50 was 20 to 50 nM. `CC[C@H](C)[C@@H]1NC(=O)[C@H](CC(C)C)N(C)C(=O)C[C@@H](C(=O)N(C)C)N(C)C(=O)[C@H](C2CCCC2)N(C)C(=O)C2(CCCC2)NC(=O)[C@@H]2CCCN2C(=O)[C@H](CCc2ccc(C(F)(F)F)c(F)c2)NC(=O)CN(C)C(=O)[C@H](CC2CCCCC2)N(C)C(=O)[C@@H]2CCN2C(=O)[C@H](C)NC1=O` [Compound 1164] ([NMeL]IA[Aze][NMeCha][Sar][hPhe(3-F,4-CF3)]P[Ac5c][NMeGly(cPent)][NMeD]-NMe2; lactam N-11) gave an IC50 of 20 to 50 nM. `CCCOC[C@H]1C(=O)N(C)CC(=O)N[C@@H](CCc2ccc(C(F)(F)F)c(Cl)c2)C(=O)N2CCC[C@H]2C(=O)NC2(CCCC2)C(=O)N(C)[C@@H](C2CCCC2)C(=O)N(C)[C@H](C(=O)N2C3CCC2COC3)CC(=O)N(CC)[C@@H](CC(C)C)C(=O)N[C@@H]([C@@H](C)CC)C(=O)N[C@@H](C)C(=O)N2CC[C@H]2C(=O)N1C` [Compound 1167] ([NEtLeu]IA[Aze][NMeS](Propyl)[Sar][hPhe(3-Cl-4-CF3)]P[Ac5c][NMeGly(cPent)][NMeD]-{3Oxa8azabicyclo(3.2.1)octane}; lactam N-11) was tested, and the IC50 was 100 to 500 nM. `CC[C@H](C)[C@@H]1NC(=O)[C@H](CCC(C)C)N(C)C(=O)C[C@@H](C(=O)N2CCOCC2)N(C)C(=O)[C@H](C2CCCC2)N(C)C(=O)C2(CCCC2)NC(=O)[C@@H]2CCCN2C(=O)[C@H](CCc2ccc(C(F)(F)F)c(Cl)c2)NC(=O)CN(C)C(=O)[C@H](CC2CCCCC2)N(C)C(=O)[C@@H]2CCN2C(=O)[C@H](C)NC1=O` [Compound 1171] ([NMehLeu]IA[Aze][NMeCha][Sar][hPhe(3-Cl-4-CF3)]P[Ac5c][NMeGly(cPent)][NMeD]-Morpholide; lactam N-11) showed an IC50 of 20 to 50 nM. With `CC[C@H](C)[C@@H]1NC(=O)[C@H](CC2CCCC2)N(C)C(=O)C[C@@H](C(=O)N2CCOCC2)N(C)C(=O)[C@H](C2CCCC2)N(C)C(=O)C2(CCCC2)NC(=O)[C@@H]2CCCN2C(=O)[C@H](CCc2ccc(C(F)(F)F)c(Cl)c2)NC(=O)CN(C)C(=O)[C@H](CC2CCCCC2)N(C)C(=O)[C@@H]2CCN2C(=O)[C@H](C)NC1=O` [Compound 1176] ([NMeAla(cPent)]IA[Aze][NMeCha][Sar][hPhe(3-Cl-4-CF3)]P[Ac5c][NMeGly(cPent)][NMeD]-Morpholide; lactam N-11) the IC50 was 50 to 100 nM. With `CCCOC[C@H]1C(=O)N(C)CC(=O)N[C@@H](CCc2ccc(C(F)(F)F)c(Cl)c2)C(=O)N2CCC[C@H]2C(=O)NC2(CCCC2)C(=O)N(C)[C@@H](C2CCCC2)C(=O)N(C)[C@H](C(=O)N2C3CCC2COC3)CC(=O)N(CC)[C@@H](CC(C)C)C(=O)N[C@@H]([C@@H](C)CC)C(=O)N(C)[C@@H](C)C(=O)N2CC[C@H]2C(=O)N1C` [Compound 1193] ([NEtLeu]I[NMeA][Aze][NMeS](Propyl)[Sar][hPhe(3-Cl-4-CF3)]P[Ac5c][NMeGly(cPent)][NMeD]-{3Oxa8azabicyclo(3.2.1)octane}; lactam N-11) the IC50 was 20 to 50 nM.
